Source: US10669272B2, “Substituted naphthyridinone compounds useful as T cell activators” (BRISTOL-MYERS SQUIBB COMPANY, priority 2018, dated 2020)
Read-outs that look alike come from different tables or passages of the source.

Experiments:
human DGKα = target: T1, human DGKα (Homo sapiens, UniProt P23743); assay: DGKα LIPGLO assay (extruded liposome substrate), in vitro DGK inhibition; assay type: biochemical; details: liposome (LIPGLO) assay; read-out: DGKa LIPGLO IC50
T1 construct: TVMV protease cleavage site (C); Hexa-His (C); made in house; host or cells: Sf9 insect cells (baculovirus, Bac-to-Bac)
T1 sequence (P23743 with tags, fused parts or gaps): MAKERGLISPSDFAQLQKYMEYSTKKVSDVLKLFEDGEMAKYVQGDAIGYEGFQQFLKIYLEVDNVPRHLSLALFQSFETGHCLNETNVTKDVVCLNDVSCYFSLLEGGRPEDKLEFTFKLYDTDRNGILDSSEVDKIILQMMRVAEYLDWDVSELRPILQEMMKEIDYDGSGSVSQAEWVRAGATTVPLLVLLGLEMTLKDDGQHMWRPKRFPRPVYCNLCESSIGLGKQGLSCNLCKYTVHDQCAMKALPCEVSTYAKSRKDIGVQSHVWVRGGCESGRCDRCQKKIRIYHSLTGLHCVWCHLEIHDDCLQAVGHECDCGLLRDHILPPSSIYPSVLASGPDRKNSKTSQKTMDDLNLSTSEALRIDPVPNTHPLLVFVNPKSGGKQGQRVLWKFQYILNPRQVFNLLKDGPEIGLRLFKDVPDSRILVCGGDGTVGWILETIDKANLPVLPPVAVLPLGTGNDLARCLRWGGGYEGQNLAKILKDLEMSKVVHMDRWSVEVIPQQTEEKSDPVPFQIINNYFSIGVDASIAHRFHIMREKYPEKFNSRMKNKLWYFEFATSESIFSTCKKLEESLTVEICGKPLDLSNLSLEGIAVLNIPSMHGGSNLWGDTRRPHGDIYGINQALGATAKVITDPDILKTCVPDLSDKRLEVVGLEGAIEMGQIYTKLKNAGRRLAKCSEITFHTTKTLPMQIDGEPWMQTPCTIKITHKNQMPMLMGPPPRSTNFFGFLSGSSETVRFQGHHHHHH

human DGKζ = target: T2, human DGKζ (Homo sapiens, UniProt Q13574); assay: DGKζ LIPGLO assay (extruded liposome substrate), in vitro DGK inhibition; assay type: biochemical; details: liposome (LIPGLO) assay; read-out: DGKz LIPGLO IC50
T2 construct: TVMV protease cleavage site (C); Hexa-His (C); made in house; host or cells: Sf9 insect cells (baculovirus, Bac-to-Bac)
T2 sequence (Q13574 with tags, fused parts or gaps isoform Q13574-4): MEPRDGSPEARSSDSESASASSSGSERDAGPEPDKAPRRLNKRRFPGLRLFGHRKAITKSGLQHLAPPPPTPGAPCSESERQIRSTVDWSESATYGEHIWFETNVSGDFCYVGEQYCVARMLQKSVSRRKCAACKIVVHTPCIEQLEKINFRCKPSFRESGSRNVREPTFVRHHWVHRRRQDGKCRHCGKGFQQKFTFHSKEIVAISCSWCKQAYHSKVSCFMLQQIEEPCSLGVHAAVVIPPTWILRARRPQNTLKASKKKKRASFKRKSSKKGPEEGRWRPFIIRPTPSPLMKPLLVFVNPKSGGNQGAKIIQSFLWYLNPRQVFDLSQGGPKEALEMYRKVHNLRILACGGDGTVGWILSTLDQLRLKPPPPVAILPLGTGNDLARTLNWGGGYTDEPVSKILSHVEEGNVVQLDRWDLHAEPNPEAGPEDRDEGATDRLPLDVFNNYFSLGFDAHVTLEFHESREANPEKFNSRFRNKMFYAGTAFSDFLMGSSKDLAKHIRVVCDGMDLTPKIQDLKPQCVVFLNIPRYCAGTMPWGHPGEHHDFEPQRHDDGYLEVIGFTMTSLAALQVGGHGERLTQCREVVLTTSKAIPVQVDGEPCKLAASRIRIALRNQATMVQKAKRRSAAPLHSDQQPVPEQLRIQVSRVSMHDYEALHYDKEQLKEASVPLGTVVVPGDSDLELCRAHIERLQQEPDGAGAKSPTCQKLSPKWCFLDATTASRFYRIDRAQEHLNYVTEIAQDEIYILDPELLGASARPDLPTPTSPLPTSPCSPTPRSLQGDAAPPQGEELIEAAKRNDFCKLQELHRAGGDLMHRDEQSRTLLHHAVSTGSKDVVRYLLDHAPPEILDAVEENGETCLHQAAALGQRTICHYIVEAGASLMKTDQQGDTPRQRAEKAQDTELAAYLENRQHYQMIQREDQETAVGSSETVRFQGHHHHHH

[1] = tested on: OT-1 CD8+ T cells with SIINFEKL-loaded MC38 tumor cells; assay: Murine cytotoxic T lymphocyte assay (IFN-γ, OT-1 CTL with MC38 tumor cells); assay type: cell-based, mouse; details: read-out: msCTL INFg IC50
Excerpt: 5. Murine Cytotoxic T Lymphocyte Assay
An antigen-specific cytolytic T-cell (CTL) assay was developed to evaluate functionally the ability of DGKα and DGKζ inhibitors to enhance effector T cell mediated tumor cell killing activity. CD8+ T-cells isolated from the OT-1 transgenic mouse recognize antigen presenting cells, MC38, that present the ovalbumin derived peptide […]. Recognition of the cognate antigen initiates the cytolytic activity of the OT-1 antigen-specific CD8+ T cells.
Functional CTL cells were generated as follows: OT-1 splenocytes from 8-12 week old mice were isolated and expanded in the presence of the […] peptide at 1 μg/mL and mIL2 at 10 U/mL. After three days, fresh media with […] was added. On day 5 of the expansion, the CD8+ T cells were isolated and ready for use. Activated CTL cells may be stored frozen for 6 months. Separately, one million MC38 tumor cells were pulsed with 1 μg/mL of […]-OVA peptide for 3 hours at 37° C. The cells were washed (3×) with fresh media to remove excess peptide. Finally, CTL cells that were pretreated with DGK inhibitors for 1 hour in a 96-well U bottom plate were combined with the antigen loaded MC38 tumor cells at a 1:10 ratio. The cells were then spun at 700 rpm for 5 min and placed in an incubator overnight at 37° C. After 24 hours, the supernatant was collected for analysis of IFN-γ cytokine levels by AlphaLisa purchased from Perkin Elmer.

naïve human CD8 T cells = assay: Human CD8 T cells IFN-γ assay; assay type: cell-based; details: normalized to 3 μM reference compound with anti-CD3 plus anti-CD28 as 100% activation, read-out: HuCD8 INFG Normalized EC50;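 note: Naïve human CD8 T cells stimulated with plate-bound anti-CD3 and soluble anti-CD28, IFN-γ in supernatant quantified by AlphaLISA and converted to pg/mL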
Human venous whole blood = assay: Human whole blood IFN-γ assay; assay type: cell-based; details: normalized to 3 μM reference compound with anti-CD3 plus anti-CD28 as 100% activation;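 note: blood from healthy donors exposed to compound for 1 h before stimulation with anti-CD3 and anti-CD28 at 1 µg/mL each, IFN-γ quantified in supernatant by AlphaLISA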
Protocol: Human Whole Blood IFN-γ Assay
Human venous whole blood (22.5 μL per well), obtained from healthy donors, was pre-treated with compounds for one hour at 37° C. in a humidified 95% air/5% CO2 incubator. The blood was stimulated with 2.5 μL anti-human CD3 and anti-CD28 mAb at a final concentration of 1 μg/mL each for 24 hours at 37° C. IFN-γ in the supernatants was measured using AlphLISA kit (Cat # AL217).

[2] = human whole blood, read-out: INFg Whole Blood Normalized Agonist EC50
[3] = Homo sapiens, 24 h, read-out: INFg Whole Blood Normalized Agonist EC50, human whole blood

Row | SMILES | IC50 (human DGKα) [nM] | IC50 (human DGKζ) [nM] | IC50 [1] [nM] | EC50 (naïve human CD8 T cells) [nM] | EC50 (Human venous whole blood; [2]) [nM] | IC50 ([1]; Mus musculus, MC-38) [nM] | EC50 (naïve human CD8 T cells; Homo sapiens, T-cell, 20 h) [nM] | EC50 (Human venous whole blood; Homo sapiens, 24 h, human whole blood, read-out: INFg Whole Blood Normalized Agonist EC50) [nM] | EC50 (Human venous whole blood; Homo sapiens, human whole blood, read-out: INFg Whole Blood Normalized Agonist EC50) [nM] | EC50 (Human venous whole blood; [3]) [nM] | EC50 (Human venous whole blood; read-out: INFg Whole Blood Normalized Agonist EC50, human whole blood) [nM]
1 | Cn1c(=O)cc(N2CCN(C(c3ccc(F)cc3)c3ccc(F)cc3)C(CO)C2)c2nc(C#N)ccc21 (single isomer, unassigned) [Example 1, 8-(4-(bis(4-fluorophenyl)methyl)-3-(hydroxymethyl)piperazin-1-yl)-5-methyl-6-oxo-5,6-dihydro-1,5-naphthyridine-2-carbonitrile] | 3000 | 480 | 230 | 96 | 820 |  |  |  |  |  | 
2 | Cn1c(=O)cc(N2CCN(C(c3ccc(F)cc3)c3ccc(F)cc3)C(CO)C2)c2nc(C#N)ccc21 (single isomer, unassigned) [Example 2, 8-(4-(bis(4-fluorophenyl)methyl)-3-(hydroxymethyl)piperazin-1-yl)-5-methyl-6-oxo-5,6-dihydro-1,5-naphthyridine-2-carbonitrile] | 2600 | 3300 |  |  | 2700 | 210 | 120 |  |  |  | 
3 | COC(=O)C1CN(c2cc(=O)n(C)c3ccc(C#N)nc23)CCN1C(c1ccc(F)cc1)c1ccc(F)cc1 (single isomer, unassigned) [Example 39, Methyl 1-(bis(4-fluorophenyl)methyl)-4-(6-cyano-1-methyl-2-oxo-1,2-dihydro-1,5-naphthyridin-4-yl)piperazine-2-carboxylate] | 240000 | 9400 | 1900 | 220 | 9700 |  |  |  |  |  | 
4 | COC(=O)C1CN(c2cc(=O)n(C)c3ccc(C#N)nc23)CCN1C(c1ccc(F)cc1)c1ccc(F)cc1 (single isomer, unassigned) [Example 40, Methyl 1-(bis(4-fluorophenyl)methyl)-4-(6-cyano-1-methyl-2-oxo-1,2-dihydro-1,5-naphthyridin-4-yl)piperazine-2-carboxylate] | 1200 | 630 | 71 | 28 | 780 |  |  |  |  |  | 
5 | COC(=O)C1CN(c2c(C#N)c(=O)n(C)c3ccc(C#N)nc23)CCN1C(c1ccc(F)cc1)c1ccc(F)cc1 (single isomer, unassigned) [Example 51, methyl 1-(bis(4-fluorophenyl)methyl)-4-(3,6-dicyano-1-methyl-2-oxo-1,2-dihydro-1,5-naphthyridin-4-yl)piperazine-2-carboxylate] |  | 2100 | 1900 | 510 | 1600 |  |  |  |  |  | 
6 | CC(C)OC(=O)C1CN(c2c(C#N)c(=O)n(C)c3ccc(C#N)nc23)CCN1C(c1ccc(F)cc1)c1ccc(F)cc1 (single isomer, unassigned) [Example 64, Isopropyl 1-(bis(4-fluorophenyl)methyl)-4-(3,6-dicyano-1-methyl-2-oxo-1,2-dihydro-1,5-naphthyridin-4-yl)piperazine-2-carboxylate] | 240000 | 240000 |  | 10000 |  | 8800 |  |  |  |  | 
7 | CC(C)OC(=O)C1CN(c2c(C#N)c(=O)n(C)c3ccc(C#N)nc23)CCN1C(c1ccc(F)cc1)c1ccc(F)cc1 (single isomer, unassigned) [Example 65, Isopropyl 1-(bis(4-fluorophenyl)methyl)-4-(3,6-dicyano-1-methyl-2-oxo-1,2-dihydro-1,5-naphthyridin-4-yl)piperazine-2-carboxylate] | 240000 |  | 8400 | 1700 |  |  |  | 16000 |  |  | 
8 | COC(=O)C1CN(C(c2ccc(F)cc2)c2ccc(F)cc2)CCN1c1cc(=O)n(C)c2ccc(C#N)nc12 (single isomer, unassigned) [Example 136, Methyl 4-(bis(4-fluorophenyl)methyl)-1-(6-cyano-1-methyl-2-oxo-1,2-dihydro-1,5-naphthyridin-4-yl)piperazine-2-carboxylate] | 25000 | 39000 | 520 |  |  |  | 950 |  |  |  | 
9 | Cn1c(=O)cc(N2CCN(C(c3ccc(F)cc3)c3ccc(F)cc3)CC2C(=O)NC2CC2)c2nc(C#N)ccc21 (single isomer, unassigned) [Example 139, 4-(bis(4-fluorophenyl)methyl)-1-(6-cyano-1-methyl-2-oxo-1,2-dihydro-1,5-naphthyridin-4-yl)-N-cyclopropylpiperazine-2-carboxamide] | 240000 | 110000 |  | 50000 |  | 10000 |  |  |  |  | 
10 | C[C@@H]1CN(c2cc(=O)n(C)c3ccc(C#N)nc23)[C@@H](C)CN1C(c1ccccc1)c1ccc(F)cc1 (single isomer, unassigned) [Example 183] |  |  |  |  |  | 33 | 39 |  | 700 |  | 
11 | C[C@@H]1CN(c2cc(=O)n(C)c3ccc(C#N)nc23)[C@@H](C)CN1C(c1ccc(F)cc1)c1ccccc1F (single isomer, unassigned) [Example 304] |  |  | 47 | 8.5 |  |  |  |  |  | 490 | 
12 | C[C@@H]1CN(c2cc(=O)n(C)c3ccc(C#N)nc23)[C@@H](C)CN1C(c1ccc(F)cc1)c1ccccc1F (single isomer, unassigned) [Example 305] |  |  | 23 | 26 |  |  |  |  |  |  | 680
13 | C[C@@H]1CN(C(c2ccc(F)cc2)c2ccc(F)cc2)[C@@H](C)CN1c1cc(=O)n(C)c2ccc(C#N)nc12 [Example 4, 8-((2R,5S)-4-(bis(4-fluorophenyl)methyl)-2,5-dimethylpiperazin-1-yl)-5-methyl-6-oxo-5,6-dihydro-1,5-naphthyridine-2-carbonitrile] |  |  |  |  |  | 320 | 300 |  |  | 3500 | 
14 | C[C@@H]1CN(c2c(Cl)c(=O)n(C)c3ccc(C#N)nc23)CCN1C(c1ccc(F)cc1)c1ccc(F)cc1 [Example 29, (R)-8-(4-(bis(4-fluorophenyl)methyl)-3-methylpiperazin-1-yl)-7-chloro-5-methyl-6-oxo-5,6-dihydro-1,5-naphthyridine-2-carbonitrile] |  |  |  |  |  | 37 | 18 |  |  | 1300 | 
15 | COC(=O)[C@@H]1CN(c2cc(=O)n(C)c3ccc(C#N)nc23)CCN1C(c1ccc(F)cc1)c1ccc(F)cc1 [Example 66, Methyl (S)-1-(bis(4-fluorophenyl)methyl)-4-(6-cyano-1-methyl-2-oxo-1,2-dihydro-1,5-naphthyridin-4-yl)piperazine-2-carboxylate] | 2400 | 1200 |  |  |  | 66 | 160 |  |  |  | 
16 | C[C@H]1CN(C(c2ccc(F)cc2)c2ccc(F)cc2)[C@@H](C)CN1c1cc(=O)n(C)c2ccc(C#N)nc12 [Example 133, 8-((2S,5S)-4-(bis(4-fluorophenyl)methyl)-2,5-dimethylpiperazin-1-yl)-5-methyl-6-oxo-5,6-dihydro-1,5-naphthyridine-2-carbonitrile] |  |  |  |  |  | 1100 | 840 |  |  | 5800 | 
17 | C[C@H]1CN(C(c2ccc(F)cc2)c2ccc(F)cc2)CCN1c1cc(=O)n(C)c2ccc(C#N)nc12 [Example 134, (S)-8-(4-(bis(4-fluorophenyl)methyl)-2-methylpiperazin-1-yl)-5-methyl-6-oxo-5,6-dihydro-1,5-naphthyridine-2-carbonitrile] | 13000 | 4900 |  |  |  | 390 | 590 |  |  |  | 
18 | CC1CN(c2cc(=O)n(C)c3ccc(C#N)nc23)CC(C)N1C(c1ccc(F)cc1)c1ccc(F)cc1 (stereo not shown) [Example 163, 8-(4-(bis(4-fluorophenyl)methyl)-3,5-dimethylpiperazin-1-yl)-5-methyl-6-oxo-5,6-dihydro-1,5-naphthyridine-2-carbonitrile] | 16000 | 12000 |  |  |  | 2100 | 1500 |  |  |  | 
